{"source": "patent US20250270707A1", "about": "“NON-TRIAZOLE IMIDAZOLINE AND AMIDE COMPOUNDS AND METHODS FOR INHIBITING CORROSION IN INDUSTRIAL WATER TREATMENT” (CHEMTREAT, INC., priority 2023, published 2025)", "key": {"[1]": {"assay": "Corrosion rate by LPR sweep, copper coupons in synthetic water, 50° C., 1 ppm free chlorine after 0.5 hrs (Examples 1 and 2)", "conditions": "for corrosion inhibition properties over the entire 18 hour period (in words): Example 2", "procedure": "(§1) One liter samples of synthetic water were each dosed with the compositions in Table 1.\n(§2) The apparatus used for the corrosion testing was a Gamry Multiport Corrosion Cell and Gamry Reference 600+potentiostat with multiplexor. Copper coupons (CDA110) were added to the sample cells containing neutral water (pH 7.5), and the cells were dosed with 50 ppm of scale inhibitor (co-polymer and 2-phosphonobutane-1,2,4-yricarboxylic acid) and heated to 50° C. and maintained at this temperature throughout the testing. The cells were continuously stirred at a speed of 350 rpm. A cylindrical working electrode was submerged into the test solutions, and an LPR sweep (linear polarization resistance) was performed every hour for 18 hours. After the 0.5 hrs mark, 1 ppm of free chlorine was dosed into the corrosion cell.\n(§3) One liter samples of the synthetic water described above with respect to Example 1 were each dosed with the compositions in Table 5 and processed under conditions similar to Example 1."}, "[2]": {"assay": "Cl2 demand in the corrosion cell test (Examples 1 and 2)", "assay_type": "physicochemical", "procedure": "as §1, §2, §3"}, "[3]": {"assay": "Control normalized Cl2 demand over time (Example 3, FIG. 3)", "assay_type": "physicochemical", "conditions": "1 ppm; compared to 50% sodium glucoheptonate (10 ppm)", "description": "One liter samples of the synthetic water described above with respect to Example 1 were each dosed with the compositions in Table 7 and processed under conditions similar to Example 1."}}, "data": [{"substance": "Sodium Cocoamphoacetate [SCAA]", "values": [{"measurement": "CR Average (10-18 hrs)", "setting": "[1]; 2 ppm", "value": 0.017, "unit": "mpy"}, {"measurement": "CR Peak", "setting": "[1]; 2 ppm", "value": 0.197, "unit": "mpy"}, {"measurement": "corrosion rate", "setting": "[1]; 2 ppm, 0 hrs", "value": 0.0217, "unit": "mpy"}, {"measurement": "corrosion rate", "setting": "[1]; 2 ppm, 1 hrs", "value": 0.1969, "unit": "mpy"}, {"measurement": "corrosion rate", "setting": "[1]; 2 ppm, 2 hrs", "value": 0.0988, "unit": "mpy"}, {"measurement": "corrosion rate", "setting": "[1]; 2 ppm, 3 hrs", "value": 0.0761, "unit": "mpy"}, {"measurement": "corrosion rate", "setting": "[1]; 2 ppm, 4 hrs", "value": 0.0602, "unit": "mpy"}, {"measurement": "corrosion rate", "setting": "[1]; 2 ppm, 5 hrs", "value": 0.0506, "unit": "mpy"}, {"measurement": "corrosion rate", "setting": "[1]; 2 ppm, 6 hrs", "value": 0.0473, "unit": "mpy"}, {"measurement": "corrosion rate", "setting": "[1]; 2 ppm, 7 hrs", "value": 0.0347, "unit": "mpy"}, {"measurement": "corrosion rate", "setting": "[1]; 2 ppm, 8 hrs", "value": 0.0293, "unit": "mpy"}, {"measurement": "corrosion rate", "setting": "[1]; 2 ppm, 9 hrs", "value": 0.0257, "unit": "mpy"}, {"measurement": "corrosion rate", "setting": "[1]; 2 ppm, 10 hrs", "value": 0.0231, "unit": "mpy"}, {"measurement": "corrosion rate", "setting": "[1]; 2 ppm, 11 hrs", "value": 0.0212, "unit": "mpy"}, {"measurement": "corrosion rate", "setting": "[1]; 2 ppm, 12 hrs", "value": 0.0191, "unit": "mpy"}, {"measurement": "corrosion rate", "setting": "[1]; 2 ppm, 13 hrs", "value": 0.0177, "unit": "mpy"}, {"measurement": "corrosion rate", "setting": "[1]; 2 ppm, 14 hrs", "value": 0.0166, "unit": "mpy"}, {"measurement": "corrosion rate", "setting": "[1]; 2 ppm, 15 hrs", "value": 0.0156, "unit": "mpy"}, {"measurement": "corrosion rate", "setting": "[1]; 2 ppm, 16 hrs", "value": 0.0142, "unit": "mpy"}, {"measurement": "corrosion rate", "setting": "[1]; 2 ppm, 17 hrs", "value": 0.0139, "unit": "mpy"}, {"measurement": "corrosion rate", "setting": "[1]; 2 ppm, 18 hrs", "value": 0.0128, "unit": "mpy"}, {"measurement": "corrosion inhibition properties over the entire 18 hour period (in words)", "setting": "[1]; 2 ppm", "value": "good corrosion inhibition properties"}, {"measurement": "Cl2 Demand", "setting": "[2]; 2 ppm", "value": 1.0, "unit": "mg/L"}]}, {"substance": "sodium dicarboxylethyl coco phosphoethyl imidazoline [SDCPI]", "values": [{"measurement": "CR Average (10-18 hrs)", "setting": "[1]; 1 ppm", "value": 0.224, "unit": "mpy"}, {"measurement": "CR Peak", "setting": "[1]; 1 ppm", "value": 0.279, "unit": "mpy"}, {"measurement": "corrosion rate", "setting": "[1]; 1 ppm, 0 hrs", "value": 0.025, "unit": "mpy"}, {"measurement": "corrosion rate", "setting": "[1]; 1 ppm, 1 hrs", "value": 0.279, "unit": "mpy"}, {"measurement": "corrosion rate", "setting": "[1]; 1 ppm, 2 hrs", "value": 0.252, "unit": "mpy"}, {"measurement": "corrosion rate", "setting": "[1]; 1 ppm, 3 hrs", "value": 0.257, "unit": "mpy"}, {"measurement": "corrosion rate", "setting": "[1]; 1 ppm, 4 hrs", "value": 0.245, "unit": "mpy"}, {"measurement": "corrosion rate", "setting": "[1]; 1 ppm, 5 hrs", "value": 0.214, "unit": "mpy"}, {"measurement": "corrosion rate", "setting": "[1]; 1 ppm, 6 hrs", "value": 0.200, "unit": "mpy"}, {"measurement": "corrosion rate", "setting": "[1]; 1 ppm, 7 hrs", "value": 0.184, "unit": "mpy"}, {"measurement": "corrosion rate", "setting": "[1]; 1 ppm, 8 hrs", "value": 0.175, "unit": "mpy"}, {"measurement": "corrosion rate", "setting": "[1]; 1 ppm, 9 hrs", "value": 0.174, "unit": "mpy"}, {"measurement": "corrosion rate", "setting": "[1]; 1 ppm, 10 hrs", "value": 0.182, "unit": "mpy"}, {"measurement": "corrosion rate", "setting": "[1]; 1 ppm, 11 hrs", "value": 0.197, "unit": "mpy"}, {"measurement": "corrosion rate", "setting": "[1]; 1 ppm, 12 hrs", "value": 0.213, "unit": "mpy"}, {"measurement": "corrosion rate", "setting": "[1]; 1 ppm, 13 hrs", "value": 0.226, "unit": "mpy"}, {"measurement": "corrosion rate", "setting": "[1]; 1 ppm, 14 hrs", "value": 0.240, "unit": "mpy"}, {"measurement": "corrosion rate", "setting": "[1]; 1 ppm, 15 hrs", "value": 0.247, "unit": "mpy"}, {"measurement": "corrosion rate", "setting": "[1]; 1 ppm, 16 hrs", "value": 0.249, "unit": "mpy"}, {"measurement": "corrosion rate", "setting": "[1]; 1 ppm, 17 hrs", "value": 0.241, "unit": "mpy"}, {"measurement": "corrosion rate", "setting": "[1]; 1 ppm, 18 hrs", "value": 0.226, "unit": "mpy"}, {"measurement": "CR Average (10-18 hrs)", "setting": "[1]; 2 ppm", "value": 0.013, "unit": "mpy"}, {"measurement": "CR Peak", "setting": "[1]; 2 ppm", "value": 0.092, "unit": "mpy"}, {"measurement": "corrosion rate", "setting": "[1]; 2 ppm, 0 hrs", "value": 0.0168, "unit": "mpy"}, {"measurement": "corrosion rate", "setting": "[1]; 2 ppm, 1 hrs", "value": 0.0923, "unit": "mpy"}, {"measurement": "corrosion rate", "setting": "[1]; 2 ppm, 2 hrs", "value": 0.0637, "unit": "mpy"}, {"measurement": "corrosion rate", "setting": "[1]; 2 ppm, 3 hrs", "value": 0.0529, "unit": "mpy"}, {"measurement": "corrosion rate", "setting": "[1]; 2 ppm, 4 hrs", "value": 0.0240, "unit": "mpy"}, {"measurement": "corrosion rate", "setting": "[1]; 2 ppm, 5 hrs", "value": 0.0173, "unit": "mpy"}, {"measurement": "corrosion rate", "setting": "[1]; 2 ppm, 6 hrs", "value": 0.0164, "unit": "mpy"}, {"measurement": "corrosion rate", "setting": "[1]; 2 ppm, 7 hrs", "value": 0.0167, "unit": "mpy"}, {"measurement": "corrosion rate", "setting": "[1]; 2 ppm, 8 hrs", "value": 0.0171, "unit": "mpy"}, {"measurement": "corrosion rate", "setting": "[1]; 2 ppm, 9 hrs", "value": 0.0179, "unit": "mpy"}, {"measurement": "corrosion rate", "setting": "[1]; 2 ppm, 10 hrs", "value": 0.0165, "unit": "mpy"}, {"measurement": "corrosion rate", "setting": "[1]; 2 ppm, 11 hrs", "value": 0.0151, "unit": "mpy"}, {"measurement": "corrosion rate", "setting": "[1]; 2 ppm, 12 hrs", "value": 0.0139, "unit": "mpy"}, {"measurement": "corrosion rate", "setting": "[1]; 2 ppm, 13 hrs", "value": 0.0133, "unit": "mpy"}, {"measurement": "corrosion rate", "setting": "[1]; 2 ppm, 14 hrs", "value": 0.0127, "unit": "mpy"}, {"measurement": "corrosion rate", "setting": "[1]; 2 ppm, 15 hrs", "value": 0.0117, "unit": "mpy"}, {"measurement": "corrosion rate", "setting": "[1]; 2 ppm, 16 hrs", "value": 0.0116, "unit": "mpy"}, {"measurement": "corrosion rate", "setting": "[1]; 2 ppm, 17 hrs", "value": 0.0113, "unit": "mpy"}, {"measurement": "corrosion rate", "setting": "[1]; 2 ppm, 18 hrs", "value": 0.0103, "unit": "mpy"}, {"measurement": "CR Average (10-18 hrs)", "setting": "[1]; 3 ppm", "value": 0.042, "unit": "mpy"}, {"measurement": "CR Peak", "setting": "[1]; 3 ppm", "value": 0.053, "unit": "mpy"}, {"measurement": "corrosion rate", "setting": "[1]; 3 ppm, 0 hrs", "value": 0.013, "unit": "mpy"}, {"measurement": "corrosion rate", "setting": "[1]; 3 ppm, 1 hrs", "value": 0.053, "unit": "mpy"}, {"measurement": "corrosion rate", "setting": "[1]; 3 ppm, 2 hrs", "value": 0.039, "unit": "mpy"}, {"measurement": "corrosion rate", "setting": "[1]; 3 ppm, 3 hrs", "value": 0.043, "unit": "mpy"}, {"measurement": "corrosion rate", "setting": "[1]; 3 ppm, 4 hrs", "value": 0.042, "unit": "mpy"}, {"measurement": "corrosion rate", "setting": "[1]; 3 ppm, 5 hrs", "value": 0.042, "unit": "mpy"}, {"measurement": "corrosion rate", "setting": "[1]; 3 ppm, 6 hrs", "value": 0.044, "unit": "mpy"}, {"measurement": "corrosion rate", "setting": "[1]; 3 ppm, 7 hrs", "value": 0.044, "unit": "mpy"}, {"measurement": "corrosion rate", "setting": "[1]; 3 ppm, 8 hrs", "value": 0.044, "unit": "mpy"}, {"measurement": "corrosion rate", "setting": "[1]; 3 ppm, 9 hrs", "value": 0.046, "unit": "mpy"}, {"measurement": "corrosion rate", "setting": "[1]; 3 ppm, 10 hrs", "value": 0.046, "unit": "mpy"}, {"measurement": "corrosion rate", "setting": "[1]; 3 ppm, 11 hrs", "value": 0.046, "unit": "mpy"}, {"measurement": "corrosion rate", "setting": "[1]; 3 ppm, 12 hrs", "value": 0.044, "unit": "mpy"}, {"measurement": "corrosion rate", "setting": "[1]; 3 ppm, 13 hrs", "value": 0.043, "unit": "mpy"}, {"measurement": "corrosion rate", "setting": "[1]; 3 ppm, 14 hrs", "value": 0.042, "unit": "mpy"}, {"measurement": "corrosion rate", "setting": "[1]; 3 ppm, 15 hrs", "value": 0.041, "unit": "mpy"}, {"measurement": "corrosion rate", "setting": "[1]; 3 ppm, 16 hrs", "value": 0.040, "unit": "mpy"}, {"measurement": "corrosion rate", "setting": "[1]; 3 ppm, 17 hrs", "value": 0.039, "unit": "mpy"}, {"measurement": "corrosion rate", "setting": "[1]; 3 ppm, 18 hrs", "value": 0.038, "unit": "mpy"}, {"measurement": "corrosion inhibition properties over the entire 18 hour period (in words)", "setting": "[1]; 2 ppm", "value": "good corrosion inhibition properties"}, {"measurement": "Cl2 Demand", "setting": "[2]; 1 ppm", "value": 0.3, "unit": "mg/L"}, {"measurement": "Cl2 Demand", "setting": "[2]; 2 ppm", "value": 0.9, "unit": "mg/L"}, {"measurement": "Cl2 Demand", "setting": "[2]; 3 ppm", "value": 0.8, "unit": "mg/L"}, {"measurement": "control normalized C12 demand over time (in words)", "setting": "[3]", "value": "did not result in significant loss of C12 demand"}]}]}
